Test: gradient 5% acetonitrile 3 min, to 50% in 2 min, to 85% in 15 min, held 3 min, 100 µL/min
Details: column: Zorbax Extend-C18 2.1 x 50 mm; eluents: water / acetonitrile, 0.1% formic acid
Summary of the method: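 Standards, all pure, were combined into mixtures of ~100 molecules and run at 100 μL/min on a Zorbax Extend-C18 column (2.1 × 50 mm, 1.8 μm) with water and acetonitrile, each containing 0.1% formic acid. A coupled quadrupole time-of-flight mass spectrometer operated in positive and negative ionization mode. Retention time values come from computationally picked adduct peaks, each inspected manually.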

Structure (SMILES)	RP-LC retention time
Cc1cc(C)c(C(=O)N2CCC(CC(=O)NCc3cccc(Cl)c3)CC2)[nH]1	804 s
CCOC(=O)c1ccc(NC(=O)Cn2cnc3ccccc32)cc1	594 s
COc1ccc(-c2nc3cc(C)ccn3c2Nc2ccc3c(c2)OCCO3)cc1	714 s
CCc1ccc(Nc2nc(C(=O)NC)nc3ccccc23)cc1	708 s
O=C(NC1CCN(c2cc(-c3ccc(F)cc3)[nH]n2)C1)c1cccc(Cl)c1 (stereo unspecified)	774 s
CNC(=O)c1noc([C@@H]2CC(F)(F)CN2C(=O)CCOC)n1	607 s
CC(=O)N1c2ccc(S(=O)(=O)N3CCCCCC3)cc2CC1C(=O)NC1CCCCCC1 (stereo unspecified)	959 s
Cc1cc(S(=O)(=O)N2CCC(C(N)=O)CC2)ccc1F	649 s
COc1ccccc1-c1cc(C(=O)N2CCN(c3ccc(=O)n(-c4ccc(F)cc4)n3)CC2)[nH]n1	789 s
O=C(NC1CCCC1)c1nc2ccccn2c1-c1ccc(F)cc1	826 s
O=C(C1CCc2nc(N3CCCC3)ncc2C1)N1CCN(Cc2ccc3c(c2)OCO3)CC1 (stereo unspecified)	566 s
CCCNC(=O)c1ccc(S(N)(=O)=O)cc1	653 s
CCc1ccc(NC(=O)Cn2c(N)nc(C)cc2=O)cc1	639 s
COc1cccc(CNC2CCN(c3ccc(C(=O)NC4CC4)cn3)C2)c1O (stereo unspecified)	556 s
Cc1ccc(CC(=O)N2CCC(COc3ccc(C(=O)NC4CC4)cc3)CC2)cc1	856 s
O=C(CSc1ccc(N2CCCC(C(=O)NC3CC3)C2)nn1)Nc1ccc(F)c(F)c1 (stereo unspecified)	680 s
Cn1c(C2CCN(C(=O)Nc3ccc(F)cc3)CC2)cc(=O)n2nccc12	615 s
O=C(Nc1cccc(Cl)c1)C1CCN(S(=O)(=O)c2cc(C(=O)N3CCOCC3)cs2)CC1	850 s
O=S(=O)(Nc1cccn2ncnc12)c1cccc(C(F)(F)F)c1	804 s
CCOC(=O)c1cc(S(=O)(=O)N2CCCC2C(=O)N2CCC(Cc3ccccc3)CC2)cn1C (stereo unspecified)	1020 s
CCOc1cc(-c2ccccc2)nc2ccc(NS(=O)(=O)c3ccc(NC(C)=O)cc3)cc12	669 s
Cc1noc(-c2nn(C)c3c2CN(C(=O)Cc2ccc(Cl)cc2)CC3)n1	762 s
COc1ccccc1NC(=O)NCCc1nc2cccnc2n1C1CCCCC1	743 s

Structure (SMILES)	RP-LC retention time
COc1cc(OC)cc(C(=O)N2CCC3(C2)C(=O)N(C)c2ccc(OC)cc23)c1 (stereo unspecified)	798 s
O=C(NCCCOc1cccc2cccnc12)c1cc(-c2ccccc2)on1	617 s
COC(=O)c1cccc(NC(=O)c2sc(-c3cn(C(C)C)c4ncccc34)nc2C)c1	1060 s
COc1ccc(OC)c(C2NC(=O)NC(C)=C2C(=O)OCC(F)(F)C(F)(F)F)c1 (stereo unspecified)	801 s
COc1ccc(Br)cc1CNC(=O)CCC(=O)N1Cc2cccn2-c2ccccc21	993 s
O=C(CN1C(=O)NC2(CCCCC2)C1=O)Nc1ccc2c(c1)OCCO2	708 s
Cc1ccc(Nc2c(-c3cc(Br)ccc3O)nc3ncccn23)c(C)c1	1120 s
Cc1nc(CC(=O)Nc2ccc(F)cc2F)sc1C(=O)NC1CC1	696 s
O=c1[nH]c2ccc(O)cc2o1	563 s
CCc1nc2cc(-c3noc(-c4ccc5c(c4)OCO5)n3)ccc2o1	1150 s
CCc1ccccc1NC(=O)Cn1c(C)nc2onc(C)c2c1=O	845 s
O=C(Nc1ccc(Cl)cc1F)C1CCN(c2nccnc2Sc2ccccc2)CC1	1190 s
O=S(=O)(c1cccc(Cl)c1)N1CCC(c2noc(-c3ccccc3)n2)CC1	1160 s
Cc1nc(N2CCCC2)c2c(C(=O)NCCc3ccc(Cl)cc3)c(C)oc2n1	782 s
CC(C)Nc1ccc2nnc(C3CCC3)n2n1	801 s
O=C(O)c1nnn(-c2cccc(F)c2)c1C(F)(F)F	744 s
CCNC(=O)NC1CCN(c2nc3cccnc3n(Cc3ccc(C)cc3)c2=O)CC1	1010 s
COc1ccc(-c2nc3c(s2)CN(C(=O)Nc2ccccc2OC)CC3)cc1	943 s
Cc1ccc(-c2csc(-n3nc(C)c(CC(=O)N4CCc5ccccc5C4)c3C)n2)cc1	1310 s
CNc1ncn(-c2c(C)cccc2C)c(=O)n1	684 s
CCCCOC(=O)CSc1nnc(-c2ccc(Br)cc2)o1	1190 s
Cc1ccc(NC(=O)N2CCC(N3CCN(Cc4ccccc4)C3=O)CC2)c(C)c1	843 s
Cc1ccc(-c2noc(-c3ccccc3S(=O)(=O)N3CCN(c4ncccn4)CC3)n2)cc1	1160 s

Structure (SMILES)	RP-LC retention time
COc1ccc(NC(=O)N2CCN(Cc3cn(C)c4ccccc34)CC2)cc1	658 s
CS(=O)(=O)N1CCN(C(=O)CCn2nnc3ccccc3c2=O)CC1	604 s
COc1ccc(-c2csc(NC(=O)COc3ccc(Cl)c(Cl)c3)n2)cc1	1200 s
Cc1cc(C)n(-c2ccc(C(=O)NCc3ccc(Cl)cc3)cn2)n1	990 s
CSc1ccc(NC(=O)N2CCC(c3cc(N)on3)CC2)cc1	713 s
CN(C)CCNCc1ccc(-c2cc(Cl)ccc2Cl)o1	578 s
CCCc1c(C(=O)O)nnn1-c1ccc(Cl)cc1	778 s
COC(=O)c1ccc(NC(=O)c2oc(C)nc2C)cc1	658 s
Cc1nnc2c(=O)n(CC(=O)NCc3ccc(F)cc3Cl)c3cccnc3n12	710 s
O=C(Cn1cccn1)Nc1nc(-c2cccnc2)cs1	537 s
CCC(=O)N1CCc2cc(-c3ccc(C(=O)N4CCN(C(=O)c5ccco5)CC4)cc3)ccc21	764 s
CCN1C(=O)CN(C(=O)C2CCCC2)CC12CCOCC2	651 s
O=C(Cc1cn2cc(Br)ccc2n1)N1CCc2ccccc2C1	635 s
COCc1ncc(C)n1C1CCN(C(=O)c2noc(C)c2Cc2c(C)noc2C)C1 (stereo unspecified)	617 s
Cc1cc(C)cc(NS(=O)(=O)c2cc(-c3cc(C(F)(F)F)on3)sc2C)c1	1230 s
CCCCN(C)C(=O)C1CCN(c2cncnc2N(C)C)CC1	611 s
O=C(NC1(c2nc(-c3cnccn3)no2)CCCCC1)c1ccco1	712 s
Cc1ccc(CN2CCN(C3CCN(C(=O)Nc4ccc(F)cc4F)CC3)C(=O)C2=O)cc1	748 s
CC(C)(C)OC(=O)Cn1cnc2c(-c3ccc(Cl)cc3)csc2c1=O	1120 s
O=C(c1ccccn1)N1CCC(Oc2cc(N3CCCCC3)ncn2)C1 (stereo unspecified)	686 s
O=C(NC1CCCC1)N1CC(Oc2ccc(-c3nc(-c4ccccc4)no3)cc2)C1	1080 s
CCOc1ccc(-c2noc(N3CCC(C(=O)N4CCOCC4)CC3)n2)cc1OC	736 s
CCn1c(=O)c2c(cc(C)n2C)n(CC(=O)Nc2cc(Cl)ccc2OC)c1=O	888 s

Structure (SMILES)	RP-LC retention time
C=CCn1nnc(NCc2ccc(-c3ccc(Cl)cc3Cl)o2)n1	1160 s
CC(C)Cc1ccc(S(=O)(=O)N2CCc3c(c(CN4CCN(C)CC4)nn3C)C2)cc1	687 s
Cc1ccc(NC(=O)C2CCCN(c3cn[nH]c(=O)c3)C2)cc1C (stereo unspecified)	742 s
Cn1c(=O)c(N2CCN(C(=O)c3cc(F)ccc3Cl)CC2)nc2ccncc21	570 s
COc1ccccc1CNC(=O)C1CCCN(c2ccc(=O)n(-c3cccc(Cl)c3)n2)C1 (stereo unspecified)	883 s
CCN1C(=O)c2cccnc2Sc2cc(NC(=O)c3ccoc3)ccc21	745 s
Cc1ccc(CNC(=O)c2ccc(Cn3nc(N4CCN(c5ccccc5)CC4)ccc3=O)o2)o1	706 s
Cc1ccc(-c2nc3cnccn3c2NCCC(=O)NC2CCCC2)cc1	696 s
COc1ccc(C(=O)N2CCC(n3c(-c4ccco4)nc4cccnc43)C2)cc1OC (stereo unspecified)	644 s
COc1ccc(N2CCN(C(=O)c3c(C)sc4ccn(C)c(=O)c34)CC2)cc1	661 s
Cc1ccc(CN2CCN(CC(=O)Nc3ccncc3)C(=O)C2=O)cc1	588 s
O=C(C1CCN(Cc2cc3ccccc3n2Cc2cccc(F)c2)CC1)N1CCCC1	721 s
Cc1cnc(C2CN(C(=O)C3(C)CCCCC3)C2)n1Cc1ccncc1	566 s
Cc1c(Br)cc(C(=O)NC(C)C)c(C)c1C	838 s
COC(=O)Cn1nc2c(-c3nc(-c4ccc(Cl)cc4)no3)cccn2c1=O	911 s
CCn1ncc(NC(=O)COc2ccc(C)cc2)c(N2CCOCC2)c1=O	764 s
CS(=O)(=O)c1ccc(NCCCC(=O)O)c([N+](=O)[O-])c1	624 s
CCn1c(CCNC(=O)c2ccccc2F)nc2cccnc21	602 s
CCc1ccc(NC(=O)C2CCN(S(=O)(=O)c3c(C)[nH]c(C)c3C(=O)N3CCCC3)CC2)cc1	729 s
Cc1ccc(C(=O)c2cnc3cc4c(cc3c2N2CCOCC2)OCO4)cc1C	714 s
COc1ccc(NCc2nnc3n2CCCCC3)cc1OC	559 s
CNC(=O)Cc1ccc(NS(=O)(=O)Cc2ccc(Cl)cc2)cc1	703 s
